Measurements from patent publication US20140045809A1, “CORROLES FOR NEUROPROTECTION AND NEURORESCUE” (priority 2008, published 2014).
“Also recorded” adds a separate entry of the source. Read-outs that look alike come from different tables or passages of the source.

How the values were obtained:
[1] = Catalytic decomposition of peroxynitrite (PN), stopped-flow kinetics (Table 1); assay type: biochemical
Method: SOD activity (enzyme-like catalytic decomposition of superoxide anion radical) of the corroles 1C-Fe, 6C-Fe, 1C-Mn, 1C-Cu, 2C-Mn and 3C-Mn was examined via the cytochrome C assay. The catalytic rate constants for decomposition of peroxynitrite (PN) by the newly prepared iron corrole 6C-Fe and manganese corrole 3C-Mn were determined via stopped-flow kinetics as previously described for corroles 1C-Fe, 1C-Mn, and 2C-Mn (Mahammed and Gross, 2006; Gershman et al., 2007). These tests are performed in order to estimate how electronic and structural variables affect reactivity, which is a crucial factor for design of new complexes.

SH-SY5Y cells = assay type: cell-based
Method: Human neuroblastoma cell line was also examined under conditions similar to RIN-m cells to reveal the corrole's ability to prevent neuronal death caused by oxidative stress. SH-SY5Y cells were plated in microtiter plates (96 wells) in DMEM-Eagle/F-12(HAM) (1:1), containing 10% FCS. To examine neuroprotective effect, SH-SY5Y cells were treated for 30 min with corroles 1C-Fe and 5C-Fe (20 and 50 μM) before addition of 20 μM H2O2 for 24 h. To examine neurorescue, SH-SY5Y cells were first exposed to 20 μM H2O2 for 0.5 h, 1.5 h or 3 h, followed by the addition of corroles 1C-Fe and 5C-Fe (20 μM) and incubation for 24 h.
Compounds 1C-Fe and 1P-Fe (1-50 μM) were added 30 min before insult with H2O2 (200 μM), followed by a subsequent 24 h period. The neuroprotective effects of the iron corrole 1C-Fe and its structurally analogous iron porphyrin 1P-Fe, against H2O2-induced neurotoxicity were investigated using MTT reduction assay and cell death ELISA, based on the use of mouse monoclonal antibodies to detect free histones and fragmented DNA (F. Hollderieder et al, Biochemica 2002, 1, 25). […] In light of the observed neuroprotective effect of corrole 1C-Fe, we attempted to determine the length of the delay between H2O2 exposure and corrole 1C-Fe treatment that would still afford neuroprotection. H2O2 was administered to SH-SY5Y cells and corrole 1C-Fe was then added for 0.5-1.5 h thereafter. […]

RIN-m cells = test: Protection of RIN-m cells against SIN-1 toxicity (MTT); assay type: cell-based, rat; conditions: 24 h; for protective effect against SIN-1 induced toxicity (MTT), comparative: 0.1-20 μM, 30 min before SIN-1 (800 μM)
Method: INS-1E cells or RIN-m cells were cultured in RPMI with low serum content (2% FCS), placed in microtiter plates (96 wells) at a density of 2.5×10^4 cells/well and allowed to attach for 24 h before treatment. Corroles 1C-Fe and 5C-Fe (10 μM) were added 30 min prior to insult with the nitric oxide donor SIN-1 (500 or 600 μM) for a subsequent 24 h period. Cell viability was evaluated by a colorimetric assay for mitochondrial function using 3-(4,5-dimethylthiazol-2-yl)-2,5-diphenyltetrazolium bromide (MTT test), and expressed as percentage of untreated control. Values higher than 100% reflect increased mitochondrial activity induced by the drug. The results represent the mean±SEM of three independent experiments performed under the same conditions.
Insulin-secreting RIN-m cells were incubated in RPMI with low serum content (2% FCS) and placed in microtiter plates (96 wells) at a density of 2.5×10^4 cells/well and allowed to attach for 24 h before treatment. Cells were treated with corroles 1C-Fe, 1C-Mn or 2C-Mn or porphyrins 1P-Fe or 2P-Mn, in various concentrations (0.1-20 μM), for 30 min prior to insult with SIN-1 (800 μM) for a subsequent 24 h period. Cell viability was evaluated by MTT test and expressed as percentage of untreated control.

NSC-34 G93A cells = test: Cell culture model of familial ALS, NSC-34 cells expressing mutant G93A-SOD1; assay type: cell-based, mouse; conditions: 48 h induction; even at a concentration as low as 0.5 μM
Method: Mutant-superoxide dismutase (G93A-SOD1) is associated with familial amyotrophic lateral sclerosis (FALS). A cell culture model of FALS was implemented by stably transfecting mouse motoneuronal NSC-34 cells or SH-SY5Y cells, to express mutant G93A-SOD1 at levels approximating those seen in the human disease. NSC-34 cells or SH-SY5Y cells were incubated in Dulbecco's modified Eagle's/F-12 medium supplemented with 10% FCS tetracycline-free (FCS Tet-free; Clontech), at 37° C. in an atmosphere of 5% CO2 in air. These cell lines are stably transfected with the pTet-ON plasmid (Clontech, Palo Alto, Calif.) coding for the reverse tetracycline controlled transactivator (rtTA). Induction of mutant SOD1 expression was obtained by shifting nonconfluent cultures into growth medium containing 1% N2 supplement (Invitrogen, Carlsbad, Calif.) and […] doxocyclin for 48 h in the presence or absence of corrole 1C-Fe and 5C-Fe.

transferrin = transferrin (Homo sapiens, UniProt P02787); test: Binding of corrole complexes to transferrin; conditions: preliminary experiments
Chain of transferrin (P02787 20-698, species assumed): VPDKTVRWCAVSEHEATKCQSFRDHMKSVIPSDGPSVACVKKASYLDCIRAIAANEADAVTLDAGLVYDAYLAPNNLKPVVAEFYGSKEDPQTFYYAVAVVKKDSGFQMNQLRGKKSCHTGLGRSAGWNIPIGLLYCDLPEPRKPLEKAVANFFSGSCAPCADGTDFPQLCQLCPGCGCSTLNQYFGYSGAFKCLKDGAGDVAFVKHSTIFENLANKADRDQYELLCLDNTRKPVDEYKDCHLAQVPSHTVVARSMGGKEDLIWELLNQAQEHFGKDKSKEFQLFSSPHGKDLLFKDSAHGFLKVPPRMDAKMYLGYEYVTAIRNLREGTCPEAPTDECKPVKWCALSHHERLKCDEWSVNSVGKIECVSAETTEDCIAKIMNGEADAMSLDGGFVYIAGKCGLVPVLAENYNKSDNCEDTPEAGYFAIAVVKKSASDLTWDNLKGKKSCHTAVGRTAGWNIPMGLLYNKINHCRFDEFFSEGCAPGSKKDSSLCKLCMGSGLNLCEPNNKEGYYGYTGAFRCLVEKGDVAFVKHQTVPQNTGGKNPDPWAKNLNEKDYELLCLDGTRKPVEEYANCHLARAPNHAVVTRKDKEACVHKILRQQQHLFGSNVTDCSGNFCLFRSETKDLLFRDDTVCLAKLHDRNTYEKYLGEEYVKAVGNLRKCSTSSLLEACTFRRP
Text: Issues regarding biodistribution, transport mechanisms, accumulation in specific organs, and the eventual elimination of administered compounds are among the prime concerns when it comes to real life utilization of potential drugs. This can be addressed by several and quite different means, including in vitro, in vivo and ex-vivo examinations. One way to predict distribution is via examination of the binding of the corroles to circulating proteins that might act as transporters, similar to experiment performed previously by the inventors with metal complexes of corrole 1C (Scheme 1), which spontaneously form tightly bound non-covalent bioconjugates with HDL (Haber et al., 2007), albumin (Mahammed et al., 2004), and transferrin (Haber and Gross. 2007) (listed in increasing order of affinity), as well as with semi-synthetic proteins (Agadjanian et al., 2006). […] A more direct approach relies on the strong fluorescence of corroles that are not chelated by transition metals (no metal such as in corroles 1C and 2C, or using corrole Ga/Al complexes such as 1C-Ga). This feature is used for testing cell entry via confocal microscopy (Agadjanian et al., 2006), without the need of attaching a fluorescent tag. Furthermore, it may even be used for whole animal imaging purposes, as shown in Example 4 hereinabove. […]

Compound	kcat, catalytic rate constant for decomposition of PN [1] [M⁻¹ s⁻¹]	neurorescue after H2O2 insult (SH-SY5Y cells; 20 μM H2O2 for 0.5, 1.5 or 3 h, then 20 μM corrole, 24 h)	cell viability (MTT reduction) (SH-SY5Y cells; 1-20 μM, 30 min before 200 μM H2O2, 24 h)	neuroprotective effect, corrole added after H2O2 (SH-SY5Y cells; 1 and 1.5 h post-H2O2 insult, extent of protection gradually decreased)	neuroprotective effect against H2O2-induced toxicity (SH-SY5Y cells; 20 and 50 μM, 30 min before 20 μM H2O2, 24 h)	cell death (ELISA detection assay) (SH-SY5Y cells; 30 min before 200 μM H2O2, 24 h)	neuroprotective effect, corrole added after H2O2 (SH-SY5Y cells; 0.5 h post-H2O2 insult)	protection from H2O2-induced neurotoxicity compared with porphyrin (SH-SY5Y cells; all concentrations studied (1-50 μM), 200 μM H2O2)	protective effect against SIN-1 induced toxicity (MTT) (RIN-m cells; 10 μM, 30 min before SIN-1 (500 or 600 μM))	protective effect against SIN-1 induced toxicity (MTT), comparative (RIN-m cells)	cell viability of induced mutant cells (NSC-34 G93A cells)	binding to transferrin (transferrin)
O=S(=O)(O)c1cc2[n]3c1C(c1c(F)c(F)c(F)c(F)c1F)=C1C=CC4=[N+]1[Fe-]31[n]3c(cc(S(=O)(=O)O)c3-2)C(c2c(F)c(F)c(F)c(F)c2F)=c2ccc([n]21)=C4c1c(F)c(F)c(F)c(F)c1F (centres unmarked) [1C-Fe, 2,17-bis(sulfonato)-5,10,15-tris(pentafluorophenyl)-corrolato iron(III)]	2e+06	instigated neurorescue	dose-dependently increased cell viability	significantly protected	dose-dependent neuroprotective effect	significantly and dose-dependently protected	remained unaltered	displayed superiority over porphyrin 1P-Fe	marked protective effect	successful; also recorded: exhibits a greater protective effect	significantly improved cell viability	
C[n+]1ccc(C2=C3C=CC4=[N+]3[Mn-]35[n]6c2ccc6-c2ccc([n]23)C(c2cc[n+](C)cc2)=c2ccc([n]25)=C4c2c(F)c(F)c(F)c(F)c2F)cc1.[I-].[I-] (centres unmarked) [2C-Mn, 5,15-bis(4-N-methyl-pyridilium)-10-pentafluorophenyl-corrolato manganese(III) diiodide salt]	400000									successful; also recorded: unequivocally in favor of the former; also recorded: improved protective effect		still do so for transferrin
